Assay results: ChEMBL document CHEMBL1201862, “PubChem BioAssay data set” (2004)
Where “and” joins values, the source holds several entries; their conditions need not be identical. Identical values can stand only once. Calls of active or inactive are those of the source.

Columns and labels:
cells = type: functional
[1] = target: FAD-linked sulfhydryl oxidase ALR (Homo sapiens, UniProt P55789); assay: ALR-catalysed DTT oxidation blockers – biochemical, H2O2 detection, luminescence, cherry-pick, dose response (AID 493248)
Cytochrome P450 3A4 = Cytochrome P450 3A4 (Homo sapiens, UniProt P08684);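 note: CYP3A4 tested as one member of a cytochrome P450 panel screen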
Cytochrome P450 2C9 = Cytochrome P450 2C9 (Homo sapiens, UniProt P11712)
Cytochrome P450 1A2 = target: T1, Cytochrome P450 1A2 (Homo sapiens, UniProt P05177);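 note: PubChem cytochrome P450 panel assay, CYP1A2 panel member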
T1 sequence (P05177 whole entry): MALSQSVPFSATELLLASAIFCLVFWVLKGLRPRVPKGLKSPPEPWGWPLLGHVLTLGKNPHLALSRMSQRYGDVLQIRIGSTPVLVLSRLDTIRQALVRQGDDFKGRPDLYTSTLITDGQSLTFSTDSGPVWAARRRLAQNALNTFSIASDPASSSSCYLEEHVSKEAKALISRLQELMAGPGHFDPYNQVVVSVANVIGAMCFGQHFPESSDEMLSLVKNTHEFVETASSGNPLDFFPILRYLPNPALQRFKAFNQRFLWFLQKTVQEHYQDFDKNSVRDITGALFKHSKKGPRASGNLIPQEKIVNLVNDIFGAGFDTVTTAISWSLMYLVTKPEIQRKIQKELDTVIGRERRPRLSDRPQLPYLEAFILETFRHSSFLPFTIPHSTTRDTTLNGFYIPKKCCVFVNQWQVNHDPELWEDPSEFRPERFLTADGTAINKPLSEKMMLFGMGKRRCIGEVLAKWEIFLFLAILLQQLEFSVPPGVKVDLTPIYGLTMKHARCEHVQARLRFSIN

Cytochrome P450 2C19 = Cytochrome P450 2C19 (Homo sapiens, UniProt P33261); assay: Cytochrome panel assay with activity outcomes. Panel member name: p450-cyp2c19 Compounds with AC50 equal or less than 10 uM are considered active; type: functional
[2] = viability of uninfected HEp-2 cells – cell-based, HTS, cytotoxicity control for RSV inhibitor project, dose response (AID 2410); type: functional; settings: human respiratory syncytial virus
H4 = assay: Luminescence Cell-Based Dose Response HTS to Identify Activators of 5'UTR Stem-Loop Driven Prion Protein mRNA Translation in H4 Neuroglioblastoma Cells. [Related pubchem assays: 1829 (Project Summary), 1814 (Primary HTS)]; type: functional; settings: Homo sapiens
[3] = Luminescence Cell-Based Dose Response HTS to Identify Activators of Luciferase Translation or Activity in H4 […] Cells. [Related pubchem assays: 1829 (Project Summary), 1814 (Primary HTS)]; type: functional
[4] = Luminescence Cell-Based Dose Confirmation HTS to Identify Activators of 5'UTR Stem-Loop Driven Alpha-Synuclein mRNA Translation in H4 Neuroglioblastoma Cells. [Related pubchem assays: 1829 (Project Summary), 1814 (Primary HTS)]; type: functional
[5] = Luminescence Cell-Based Dose Response HTS to Identify Inhibitors of 5'UTR Stem-Loop Driven Prion Protein mRNA Translation in H4 Neuroglioblastoma Cells. [Related pubchem assays: 1827 (Project Summary), 1813 (Primary HTS)]; type: functional
[6] = alpha-synuclein stem-loop luciferase translation blockers – H4 neuroglioma cells, luminescence, confirmation (AID 1988); type: functional, cell-based
[7] = luciferase reporter signal suppression in cells – H4 neuroglioma cells, luminescence, dose response (AID 1990); type: functional, cell-based
[8] = target: T2, Heat shock factor protein 1 (Mus musculus, UniProt P38532); assay: decrease of HSF1-responsive luciferase luminescence – cell-based, NIH3T3, dose retest, confirmation (AID 2382); type: functional;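 note: NIH3T3 fibroblasts with HSF1-driven luciferase reporter stressed by proteasome inhibitor MG132; luminescence from HSF1-driven luciferase expression after 8 hours of MG132 stress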
T2 sequence (P38532 whole entry): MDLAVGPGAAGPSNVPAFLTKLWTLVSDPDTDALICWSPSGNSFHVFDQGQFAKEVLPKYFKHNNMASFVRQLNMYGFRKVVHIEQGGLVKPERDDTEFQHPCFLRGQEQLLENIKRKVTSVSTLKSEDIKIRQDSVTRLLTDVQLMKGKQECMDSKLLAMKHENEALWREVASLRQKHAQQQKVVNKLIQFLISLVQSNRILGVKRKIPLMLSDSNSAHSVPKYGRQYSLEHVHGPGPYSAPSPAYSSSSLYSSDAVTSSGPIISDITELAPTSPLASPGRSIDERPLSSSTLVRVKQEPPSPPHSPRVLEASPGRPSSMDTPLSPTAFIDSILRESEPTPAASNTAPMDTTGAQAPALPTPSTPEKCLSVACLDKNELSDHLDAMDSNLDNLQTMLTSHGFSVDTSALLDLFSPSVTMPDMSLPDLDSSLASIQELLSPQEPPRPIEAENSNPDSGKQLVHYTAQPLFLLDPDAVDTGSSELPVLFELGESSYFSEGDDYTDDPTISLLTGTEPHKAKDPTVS

[9] = non-specific 3'UTR reporter inhibition in Clone20-Shn3RL – cell-based, Renilla luciferase, cherry-picked, counter-screen for Shn3 inhibitor project, dose response (AID 624133); type: functional

Cytochrome P450 2C9, sequence (P11712 whole entry): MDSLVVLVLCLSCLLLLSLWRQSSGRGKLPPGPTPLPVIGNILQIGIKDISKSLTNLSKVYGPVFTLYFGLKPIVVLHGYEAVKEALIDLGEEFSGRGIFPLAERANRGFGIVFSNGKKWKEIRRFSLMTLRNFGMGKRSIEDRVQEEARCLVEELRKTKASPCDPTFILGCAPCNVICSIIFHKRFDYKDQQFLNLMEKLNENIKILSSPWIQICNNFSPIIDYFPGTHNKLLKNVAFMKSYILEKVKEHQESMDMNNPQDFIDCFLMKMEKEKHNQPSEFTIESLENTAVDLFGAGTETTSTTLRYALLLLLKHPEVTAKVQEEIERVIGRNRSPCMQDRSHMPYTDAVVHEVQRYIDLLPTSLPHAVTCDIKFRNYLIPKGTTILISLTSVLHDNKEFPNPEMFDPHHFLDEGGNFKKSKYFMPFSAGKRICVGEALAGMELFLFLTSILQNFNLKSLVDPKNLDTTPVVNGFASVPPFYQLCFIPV
FAD-linked sulfhydryl oxidase ALR, sequence (P55789 whole entry): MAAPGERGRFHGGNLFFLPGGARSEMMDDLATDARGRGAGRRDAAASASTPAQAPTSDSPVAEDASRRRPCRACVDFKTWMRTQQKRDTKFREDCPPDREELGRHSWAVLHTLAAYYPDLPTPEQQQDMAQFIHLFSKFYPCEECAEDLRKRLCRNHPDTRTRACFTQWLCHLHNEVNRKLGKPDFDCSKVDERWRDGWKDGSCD
Cytochrome P450 3A4, sequence (P08684 whole entry): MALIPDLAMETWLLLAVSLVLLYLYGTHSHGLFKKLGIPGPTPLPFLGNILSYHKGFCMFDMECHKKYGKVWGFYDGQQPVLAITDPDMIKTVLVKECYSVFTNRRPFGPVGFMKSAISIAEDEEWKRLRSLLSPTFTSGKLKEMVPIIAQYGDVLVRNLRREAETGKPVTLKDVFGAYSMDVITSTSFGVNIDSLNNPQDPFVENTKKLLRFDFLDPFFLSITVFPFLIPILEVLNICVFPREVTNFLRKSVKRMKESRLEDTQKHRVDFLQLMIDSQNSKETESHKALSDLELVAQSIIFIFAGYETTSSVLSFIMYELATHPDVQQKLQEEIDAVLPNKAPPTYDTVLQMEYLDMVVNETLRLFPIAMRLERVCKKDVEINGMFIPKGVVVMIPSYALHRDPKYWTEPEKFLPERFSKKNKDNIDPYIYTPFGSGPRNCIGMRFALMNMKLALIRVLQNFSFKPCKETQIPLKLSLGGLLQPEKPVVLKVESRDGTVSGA
Cytochrome P450 2C19, sequence (P33261 whole entry): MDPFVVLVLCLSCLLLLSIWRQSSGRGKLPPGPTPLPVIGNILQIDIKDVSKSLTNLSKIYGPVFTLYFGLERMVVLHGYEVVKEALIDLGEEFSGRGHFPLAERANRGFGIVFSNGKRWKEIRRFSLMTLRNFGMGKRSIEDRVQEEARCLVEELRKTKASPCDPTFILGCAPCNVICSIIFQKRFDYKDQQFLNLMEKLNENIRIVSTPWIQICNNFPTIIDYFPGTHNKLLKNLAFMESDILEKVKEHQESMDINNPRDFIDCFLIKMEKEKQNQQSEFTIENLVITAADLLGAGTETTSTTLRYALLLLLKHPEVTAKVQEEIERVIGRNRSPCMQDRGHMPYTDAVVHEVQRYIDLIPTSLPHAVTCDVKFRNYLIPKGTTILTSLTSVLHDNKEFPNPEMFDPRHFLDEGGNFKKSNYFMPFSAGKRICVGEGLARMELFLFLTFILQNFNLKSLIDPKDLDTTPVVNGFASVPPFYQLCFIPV

O=C(CCc1ccccc1)NC1C2CC3CC(C2)CC1C3 (centres undefined)
IC50 (cells): 18.6 µM (active)

COc1ccc(N2CCN(C(=O)Cc3ccc(C)cc3)CC2)cc1
AC50 [1]: 5.48 µM (active)

C=CCN1C[C@H](C)N([C@@H](c2ccccc2)c2ccc(C(=O)N(CC)CC)cc2)C[C@H]1C
AC50 (Cytochrome P450 3A4): 2.51 µM (inconclusive)
AC50 (Cytochrome P450 2C9): 31.6 µM (inconclusive)
AC50 (Cytochrome P450 1A2): 31.6 µM (inconclusive)
AC50 (Cytochrome P450 2C19; read-out: AC50): 0.0631 µM (inconclusive)

CCC/C=C(\CCC)C(NC(=O)c1ccc(C(F)(F)F)cc1)c1ccccc1 (centres undefined)
AC50 (Cytochrome P450 2C9): 3.16 µM (inconclusive)
AC50 (Cytochrome P450 1A2): 25.1 µM (inconclusive)

CCn1c2ccccc2c2cnc(/N=C/N(C)C)c(C#N)c21
CC50 [2]: 37 µM (active)

Cc1ccc(S(=O)(=O)Oc2cc(S(=O)(=O)O)cc3cc(S(=O)(=O)O)cc(N)c23)cc1
AC50 (Cytochrome P450 1A2): 2 µM (inconclusive)

CCN(CC)CC(=O)Nc1ccc2c(c1)Nc1ccccc1CC2
AC50 [1]: 0.221 µM (active)

CC(CN1CCN(c2ccccc2)CC1)c1ccccc1 (centres undefined)
AC50 [1]: 66.9 µM (active)

COc1ccc(/C=C2\SC(=S)N(Cc3cccnc3)C2=O)cc1C
EC50 (H4): 20.1 µM (active)
EC50 [3]: 11.1 µM (active)
EC50 [4]: 38 µM (active)

CCCCN1CC(=O)C(c2nc3ccccc3s2)=C1N
EC50 (H4): > 120 µM (not active)
EC50 [3]: 30.8 µM (active)
EC50 [4]: 13.8 µM (active)

C/C(=N/OCC(=O)Nc1ccccc1)c1cccs1
EC50 (H4): 16.8 µM (active)
EC50 [3]: 26.4 µM (active)
EC50 [4]: 13.4 µM (active)

Cc1ccc(C(=O)C2=C(O)C(=O)N(Cc3cccnc3)C2c2ccccc2[N+](=O)[O-])cc1 (centres undefined)
EC50 (H4): > 120 µM (not active)
EC50 [3]: 14.9 µM (active)
EC50 [4]: 30.1 µM (active)

Nc1cccc(OCc2nc(N)nc(N)c2-c2ccc(Cl)cc2)c1
AC50 (Cytochrome P450 1A2): 0.158 µM (inconclusive)

N#Cc1cc2cc3c(cc2nc1N1CCCCC1)OCCO3
EC50 (H4): 1.42 µM (active)
EC50 [3]: 1.82 µM (active)
EC50 [4]: 0.139 µM (active)

Cn1c(=O)c(-c2cccs2)nc2cnc(N3CCOCC3)nc21
AC50 (Cytochrome P450 1A2): 5.01 µM (inconclusive)

O=C(O)c1ccc(Sc2nnc(-c3cccc(Br)c3)o2)c([N+](=O)[O-])c1
AC50 [1]: 0.044 µM (active)

N#CC1CCCc2c1[nH]c1ccc([N+](=O)[O-])cc21 (centres undefined)
CC50 [2]: 27.8 µM (active)
EC50 [5]: > 120 µM (not active)
EC50 [6]: 24.5 µM (active)
EC50 [7]: 11.7 µM (active)

CCOc1ccc(NC(=O)COC(=O)C2(C)CC2(Cl)Cl)c([N+](=O)[O-])c1 (centres undefined)
IC50 (cells): 38.4 µM (active)
EC50 [8]: > 195 µM (not active)

CC(=O)c1c(C)[nH]c(C(=O)CSc2ccc(F)cc2)c1C
EC50 (H4): 71.1 µM (active)
EC50 [3]: 30.2 µM (active)
EC50 [4]: 20 µM (active)

CSc1ccc(CNc2ncc(-c3cccc([N+](=O)[O-])c3)n2C)cc1
IC50 (cells): 21.8 µM (active)

Cc1cc(NS(=O)(=O)c2ccccc2)c(C)c(Cl)c1O
CC50 [2]: 8.98 µM (active)

CC(=O)Nc1ccc(S(=O)(=O)N2CCC(c3nc4cc(C)ccc4[nH]3)CC2)cc1
CC50 [2]: 15.4 µM (active)

CC(C)N1CCN(Cc2c[nH]c3ccccc23)CC1CCO (centres undefined)
AC50 [9]: 28.6 µM (active)

O=C(CCN1C[C@H]2CC[C@H](CC2)C1)c1cccs1
AC50 (Cytochrome P450 1A2): 5.01 µM (inconclusive)

COc1cccc(COC(=O)CCNC(=O)c2ccc(Br)cc2)c1OC
IC50 (cells): 15.4 µM (active)

Cc1cc(C)n(CCC(=O)N2CCCC(Nc3ccc(F)cc3)C2)n1 (centres undefined)
AC50 [1]: 33.3 µM (active)

Sc1nnc(-c2ccccn2)n1/N=C/c1ccc(Br)s1
AC50 [1]: 10.5 µM (active)

Cc1cccc(-n2c(N)c(C(=O)NCCN3CCOCC3)c3nc4ccccc4nc32)c1
EC50 (H4): > 120 µM (not active)
EC50 [3]: > 120 µM (not active)
EC50 [4]: > 120 µM (not active)

C=CCNC(=O)/C(=C\c1ccc2c(c1)OCO2)NC(=O)c1ccc(Br)cc1
AC50 (Cytochrome P450 2C9): 5.62 µM (inconclusive)
AC50 (Cytochrome P450 1A2): 14.1 µM (inconclusive)

COc1ccc(N(C)C(=O)c2cc3c(s2)-c2ccccc2OC3)c(OC)c1
CC50 [2]: 48.3 µM (active)

NC(=NO)c1ccccc1N1CCC(Cc2ccccc2)CC1
AC50 [1]: 27.4 µM (active)

Cc1ccc(C(=O)NC(=S)N2CC(C)OC(C)C2)cc1[N+](=O)[O-] (centres undefined)
AC50 (Cytochrome P450 3A4): 22.4 µM (inconclusive)
AC50 (Cytochrome P450 2C9): 14.1 µM (inconclusive)
AC50 (Cytochrome P450 1A2): 15.8 µM (inconclusive)
AC50 (Cytochrome P450 2C19): inconclusive

CN1CCC(c2c[nH]c3ccc(O)cc23)CC1
AC50 (Cytochrome P450 3A4): 15.8 µM (inconclusive) and 31.6 µM (inconclusive)
AC50 (Cytochrome P450 1A2): 31.6 µM (inconclusive)

Cc1cc(C)nc(Nc2n[nH]c(-c3ccc(N)cc3)n2)n1
AC50 [1]: 0.311 µM (active)

C=CCNc1nc(-c2ccc(OC)cc2OC)cs1
EC50 (H4): 53.9 µM (active)
EC50 [3]: 26.8 µM (active)
EC50 [4]: 0.287 µM (active)
